Measurements: patent publication US8410247B2, “Water-soluble phosphinothiol reagents” (Wisconsin Alumni Research Foundation, priority 2008, dated 2013)
In brackets after ≈: the same amount, converted by molar mass. Read-outs that look alike come from different tables or passages of the source.

What was measured:
[1] = cited from earlier work; for pKa: ammonium pKa (Brown 1955)
[2] = pKa determination by 31P NMR spectroscopy; format: physicochemical; details: control experiment, sodium phosphate buffer containing 20% v/v D2O
Procedure: The pKa values of phosphinothiols 33-35 were determined to quantitate the impact of Coulombic effects. […] Thus, the phosphorous pKa value of the cationic phosphinothiols appears to be below the limit of experimental detection. […] (Moore, S. J.; Marzilli, L. G. Inorg. Chem. 1998, 37, 5329-810 5335.) That value is much larger than the phosphorous pKa of phosphinothiols 33-35, consistent with the present hypothesis that through-space Coulombic effects lower the pKa of neighboring atoms, and in particular discourage protonation of the key iminophosphorane intermediate.
pKa Determination of phosphinothiols […] (10 mg) were each dissolved in sodium phosphate buffer containing 20% v/v D2O. 750 The solution was adjusted with a solution of either 6 N HCl or 2 N NaOH, and chemical shifts at each pH were determined by ^31P NMR spectroscopy. An external standard (D3PO4) was used to calibrate the chemical shifts. […] (Podlaha, J.; Podlahova, J. Collect. Czech. Chem. Commun. 1973, 38, 1730-1736.)

[3] = Solubility in water or aqueous sodium phosphate buffer; format: physicochemical; details: 0.4 M sodium phosphate buffer (pH 7.8)
[4] = Gly+Gly coupling in DMF/D2O (6:1), reported previously; cited from earlier work
[5] = Stability in air / on storage; format: physicochemical; details: chloride salt, solid

NCCCCCN [^+H3N(CH2)5NH3^+]
pKa [1]: 9.74

NCCCCCCCCN [^+H3N(CH2)8NH3^+]
pKa [1]: 10.10

CCCCCCN [CH3(CH2)5NH3^+]
pKa [1]: 10.63

CCCCCCCCCN [CH3(CH2)8NH3^+]
pKa [1]: 10.65

COc1ccc(P(c2ccc(OC)cc2)c2ccc(OC)cc2)cc1 [(p-OMe-C6H4)3P]
phosphorous pKa ([1]; in water (Moore 1998)): 4.57

CCP(c1ccccc1)c1ccccc1 [EtPPh2]
phosphorous pKa ([1]; neutral mimic of HSCH2PPh2 (Moore 1998)): 4.90

O=C(O)CCP(CCC(=O)O)CCC(=O)O [TCEP, tris(2-carboxyethyl)phosphine]
pKa, reported value ([1]; reported value (Podlaha 1973)): 7.66 | pKa [2]: 7.7

Fc1ccc(P(c2ccc(F)cc2)c2ccc(F)cc2)cc1 [(p-F—C6H4)3P]
phosphorous pKa ([1]; in water (Moore 1998)): 1.97

c1ccc(P(c2ccccc2)c2ccccc2)cc1 [Ph3P]
phosphorous pKa ([1]; in water (Moore 1998)): 2.73

O=C(O)CNC(=O)c1ccc(P(CS)c2ccc(C(=O)NCC(=O)O)cc2)cc1 [phosphinothiol 9]
solubility [3]: ~50 mM (≈ 21.7 mg/mL)

SCP(c1ccccc1)c1ccccc1 [phosphinothiol 1, (Diphenylphosphino)methanethiol]
second-order rate constant k2 [4]: 0.0077 M⁻¹ s⁻¹

CN(C)CCc1ccc(P(CS)c2ccc(CCN(C)C)cc2)cc1 [phosphinothiol 17, bis(p-dimethylaminoethyl) phosphinomethanethiol]
stability in air [5]: stable in air for several days | solubility ([3]; aqueous buffer, chloride salt, read-out: solubility): > 1000 mM
